The text below walks through data of article PMC3226499, “Environmental Impact on Vascular Development Predicted by High-Throughput Screening” (Environmental Health Perspectives, 2011).

The AC50 is the concentration giving half of the maximal activity seen. Higher therefore signals weaker potency.

One assay addresses TIE2 (Homo sapiens, UniProt Q02763). In words: TIE2 cell-free biochemical assay.
The next assay has as its system PAI-1. Kind of assay: BioMAP protein readout: PAI-1 up- and down-regulation. The assay is classed as cell-based, human. From the text: (§1) Source data. […] Assays measured direct interactions between chemicals and molecular targets (receptors, enzymes), as well as downstream effects on reporter gene activity or cellular consequences. […] The perturbation scores are a method of aggregating assays into groups and providing a higher-level view of chemical activity across important signaling pathways.
(§2) Identifying pVDCs. Six assay targets emerged as most relevant to embryonic blood vessel formation based on biological plausibility and prevalence in the VasculoDB literature. These targets have been previously identified, based on murine knockout models or significant associations between biomarker data and adverse pregnancy effects, as critical to proper embryonic blood vessel formation or maternal–fetal placental circulation. In order of descending influence (with corresponding references highlighting their importance to vascular development), these were down-regulation of the receptor tyrosine kinase (RTK) VEGFR2 ([Drake et al. 2007]); inhibition of the enzymatic activity of TIE2, an angiogenic RTK ([Patan 1998]); down-regulation of the proangiogenic chemokine CCL2 ([Keeley et al. 2008]); perturbation of the plasminogen-activating system (PAS) controlling extracellular matrix breakdown via up- or down-regulation of plasminogen activator inhibitor type 1 (PAI-1/SERPINE1) ([Behzadian et al. 2003]); up-regulation of the proinflammatory antiangiogenic chemokine CXCL10 ([Romagnani et al. 2001]); and perturbation of the PAS via up- or down-regulation of urokinase-type plasminogen activator receptor (uPAR/PLAUR) ([D’Alessio and Blasi 2009]).
(§3) As predicted, thalidomide and 5HPP-33 were active across most of the pVDC signature assay targets. […] 5HPP-33 also had effects on uPAR in the endothelial cell system at 10 µM. […] Both compounds, however, fell above the mean VBS cutoff and would be classified as pVDCs based on in vitro activity for vascular targets identified by the ToxCast data and chemicals. […] Thus, our findings with reference compounds known to be antiangiogenic support the contention that VBS is an effective metric for vascular disruption.

For another assay, the system named is CXCL10. In words: BioMAP protein readout: CXCL10 up-regulation. The assay is classed as cell-based, human.
Source text: as §1
(§4) Identifying pVDCs. Six assay targets emerged as most relevant to embryonic blood vessel formation based on biological plausibility and prevalence in the VasculoDB literature. These targets have been previously identified, based on murine knockout models or significant associations between biomarker data and adverse pregnancy effects, as critical to proper embryonic blood vessel formation or maternal–fetal placental circulation. […]

Another assay has as its system CCL2. In words: BioMAP protein readout: CCL2 down-regulation. Type of assay: cell-based, human.
Source text: as §1, §2, §3

The next assay deals with uPAR. Kind of assay: BioMAP protein readout: uPAR up- and down-regulation. The assay is classed as cell-based, human.
Source text: as §1, §2, §3

In a further assay the test system is VEGFR2. Kind of assay: BioMAP protein readout: VEGFR2 down-regulation. The assay is classed as cell-based, human. To be noted: lowest effective concentration.
Source text: as §1, §4

Assay [1] relates to six prioritized vascular targets (VEGFR2, TIE2, CCL2, PAI-1, CXCL10, uPAR). In words: Vascular bioactivity score (VBS): weighted sum of activity across 23 ToxCast assays. Also noted: species or system human.
For assay [2], the system named is human umbilical vein endothelial cell. On the set-up: method as in Noguchi et al. 2005. To be noted: ref Noguchi et al. 2005; cited from earlier work.

Sequence of TIE2 (Q02763 23-1124, species assumed): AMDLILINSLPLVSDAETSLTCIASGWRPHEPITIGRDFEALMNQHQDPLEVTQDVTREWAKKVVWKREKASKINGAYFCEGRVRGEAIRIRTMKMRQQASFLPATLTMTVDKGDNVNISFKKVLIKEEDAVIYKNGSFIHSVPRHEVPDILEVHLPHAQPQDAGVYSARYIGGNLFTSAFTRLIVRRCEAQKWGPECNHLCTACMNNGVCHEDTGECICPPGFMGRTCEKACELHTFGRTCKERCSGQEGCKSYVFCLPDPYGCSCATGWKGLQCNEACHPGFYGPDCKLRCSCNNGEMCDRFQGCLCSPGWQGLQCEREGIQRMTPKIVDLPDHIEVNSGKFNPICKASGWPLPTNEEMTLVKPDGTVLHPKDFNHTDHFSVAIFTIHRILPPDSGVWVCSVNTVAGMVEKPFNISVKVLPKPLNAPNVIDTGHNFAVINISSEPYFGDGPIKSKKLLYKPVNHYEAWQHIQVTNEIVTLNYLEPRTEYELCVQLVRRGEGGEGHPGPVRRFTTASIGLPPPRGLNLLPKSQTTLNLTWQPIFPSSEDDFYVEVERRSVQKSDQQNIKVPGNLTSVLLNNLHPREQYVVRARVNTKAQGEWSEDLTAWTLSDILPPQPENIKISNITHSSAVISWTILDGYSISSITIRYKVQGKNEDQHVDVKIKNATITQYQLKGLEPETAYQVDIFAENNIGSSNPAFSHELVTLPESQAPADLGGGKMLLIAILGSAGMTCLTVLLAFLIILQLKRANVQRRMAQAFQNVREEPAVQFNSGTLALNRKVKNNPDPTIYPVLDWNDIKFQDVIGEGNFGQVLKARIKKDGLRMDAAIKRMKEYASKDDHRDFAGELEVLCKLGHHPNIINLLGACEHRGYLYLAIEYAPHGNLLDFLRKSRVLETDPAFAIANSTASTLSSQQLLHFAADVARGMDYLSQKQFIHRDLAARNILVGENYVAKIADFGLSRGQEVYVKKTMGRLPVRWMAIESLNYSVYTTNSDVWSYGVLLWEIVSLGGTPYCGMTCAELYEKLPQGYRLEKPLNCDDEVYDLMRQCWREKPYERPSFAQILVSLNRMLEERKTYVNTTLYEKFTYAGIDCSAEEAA

Take `CC(C)c1cccc(C(C)C)c1N1C(=O)c2ccc(O)cc2C1=O` [5HPP-33, 5-hydroxy-2-(2,6-diisopropylphenyl)-1H-isoindole-1,3-dione]: at TIE2, the AC50 was > 50 µM and the “AC50 in the TIE2 assay (in words)” value was “Neither compound affected the CXCL10 signal assay or produced an AC50 in the TIE2 assay”. The “PAI-1 down-regulation LEC” value in the assay with PAI-1 (both fibroblasts and bronchial epithelial cells) is listed as 20 µM. The “PAI-1 up- and down-regulation LEC” value in the assay with PAI-1 (lowest effective concentration) is given as 20 µM. Besides, in the assay with CXCL10, the “effect on CXCL10 signal assay” value is “Neither compound affected”. Also, the “CCL2 down-regulation LEC” value in the assay with CCL2 (coculture of peripheral blood mononuclear cells and endothelial cells) is on record as 0.625 µM. Moreover, the “CCL2 down-regulation LEC” value in the assay on CCL2 (lowest effective concentration) is 0.625 µM. In the assay on uPAR (bronchial epithelial cells), the “uPAR up-regulation, effective concentration” value was determined as 1.25 µM. Besides, the “effects on uPAR, effective concentration” value in the assay with uPAR (endothelial cell system) came out at 10 µM. The “uPAR up- and down-regulation LEC” value with uPAR (lowest effective concentration) is 1.25 µM. For the same compound, the “VEGFR2 down-regulation LEC” value with VEGFR2 was 20 µM. Further, in assay [1] (among all 311 compounds tested), the “predicted vascular disruption from VBS rank” value is reported as “second highest VBS”. The same compound showed a VBS in assay [1] (summed activity across 23 assays, 6 assay targets, reference antiangiogenic compounds) of 6.61. Besides, the “inhibition of tube formation” value in assay [2] is on record as ~ 60%.
